Experimental data as given in US11312790B2, “Production method for pentosan polysulfate” (OJI HOLDINGS CORPORATION, priority 2016, dated 2022).

Tests used:
[1] = molecular target: T1, factor IIa (Homo sapiens, UniProt P00734); assay: Measurement of anti-IIa activity using Biophen heparin anti-IIa; format: biochemical; settings: Biophen heparin anti-IIa kit
T1 construct: purchased Hyphen BioMed Biophen heparin anti-IIa
Excerpt: In general, anticoagulant activity is based on the activity of inhibiting blood coagulation factors. That is, when anticoagulant activity is high, a blood coagulation reaction is inhibited. Blood coagulation factors refer to the action system of a series of molecules in a living body for coagulating blood when bleeding etc. Successive activation of a large number of blood coagulation factors agglutinates fibrin, and stops bleeding in the bleeding area. Representative examples of blood coagulation factors include factor Xa and factor IIa. Blood coagulation can be inhibited by inhibiting the activity of these factors. The factor IIa inhibitory activity (anti-IIa activity) can be measured using Biophen heparin anti-IIa (manufactured by Hyphen BioMed). Measurement of Anti-IIa Activity The anti-IIa activity of pentosan polysulfate sodium was measured using Biophen heparin anti-IIa (manufactured by Hyphen BioMed).

[2] = test system: factor Xa; assay: Measurement of anti-Xa activity using Test Team Heparin S; format: biochemical; settings: Test Team Heparin S kit
Excerpt: In general, anticoagulant activity is based on the activity of inhibiting blood coagulation factors. That is, when anticoagulant activity is high, a blood coagulation reaction is inhibited. Blood coagulation factors refer to the action system of a series of molecules in a living body for coagulating blood when bleeding etc. Successive activation of a large number of blood coagulation factors agglutinates fibrin, and stops bleeding in the bleeding area. Representative examples of blood coagulation factors include factor Xa and factor IIa. Blood coagulation can be inhibited by inhibiting the activity of these factors. Here, the factor Xa inhibitory activity (anti-Xa activity) can be measured using Test Team (registered trademark) Heparin S (manufactured by Sekisui Medical Co., Ltd.). Measurement of Anti-Xa Activity The anti-Xa activity of pentosan polysulfate sodium was measured using Test Team (registered trademark) Heparin S (manufactured by Sekisui Medical Co., Ltd.).

Row | Anti-IIa activity [1] | Substance | Anti-Xa activity [2]
1 | 0.0221 IU/mg | pentosan polysulfate sodium [Comparative Example 1, reference compound] | 0.0840 IU/mg
2 | 0.1845 IU/mg | pentosan polysulfate sodium [Example 2] | 0.2588 IU/mg
3 | 0.0676 IU/mg | pentosan polysulfate sodium [Example 3] | 0.2439 IU/mg
4 | 0.0934 IU/mg | pentosan polysulfate sodium [Example 4] | 0.2419 IU/mg
5 | 0.0976 IU/mg | pentosan polysulfate sodium [Example 5] | 0.2297 IU/mg

Row | Substance | Anti-IIa activity [1] | Anti-Xa activity [2]
6 | pentosan polysulfate sodium [Example 1] | 0.1405 IU/mg | 0.2047 IU/mg
